Results published in US7795226B2, “Control of radiation injury” (Biotempt B.V., priority 2006, dated 2010).

Assays:
[1] = test system: LPS (E. coli 026:B6)-induced sepsis in BALB/c mice; experiment: endotoxin shock survival after early or late treatment with peptide; format: in vivo
Method: Mice used in sepsis or septic shock experiments: Female BALB/c mice of eight to twelve weeks of age were used for all experiments. The animals were bred in our facility under specific pathogen-free conditions according to the protocols described in the […] of European Laboratory Animal Science Associations (FELASA) Working group on Animal Health (Laboratory Animals 28:1-24, 1994).
Injection protocols: For the endotoxin model, BALB/c mice were injected i.p. with 150-300 μg LPS (E. coli 026:B6; Difco Lab., Detroit, Mich., USA). Control groups were treated with PBS i.p. only. To test the effect of peptides, they were dissolved in PBS and injected i.p. at predetermined points in time after LPS treatment.
A further set of septic shock experiments were set up to determine which of the peptides LQG, LQGV (SEQ ID NO:117), VLPALP (SEQ ID NO:140), VLPALPQ (SEQ ID NO:143), MTR, MTRV (SEQ ID NO:119), VVC or AQGV (SEQ ID NO:120) under study were most suited to be used early and/or late after or throughout the development of shock. For determining the percent of endotoxin shock survival after late or early treatment with peptide, BALB/c mice were injected i.p. with 300 μg LPS (E. coli 026:B6; Difco Lab., Detroit, Mich. USA), predetermined to be leading to 100% mortality in 48 hours without peptide treatment.
To evaluate the effect of peptide treatment at an early or late point in time of development of shock, mice were treated at two hours or at 24 hours after LPS injection by i.p. injection with test peptide at 5 mg/kg bodyweight. The mice were followed for 84 hours instead of for 48 hours in the earlier experiments.

[2] = test system: cell-cycle marker pCDG and auxin-responsive marker DR5::GUS; experiment: Arabidopsis thaliana seedling cell-cycle analysis (GUS markers); settings: for identified as useful peptide for treatment of radiation injury from cell-cycle studies in plants and in vitro proliferation studies: Results from Examples 9 and 10
Procedure, shortened: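 Four-day-old Ws-0 seedlings carrying GUS reporters (pCDG, DR5::GUS) were exposed to peptides at 5 mg/ml in PBS pH 8 for four and eight hours. GUS staining with 2 mM X-Gluc for 16 hours; distribution in root, root-hypocotyl transition zone and cotyledons assessed by DIC microscopy after chloral hydrate clearing.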

[3] = test system: spleen cell suspensions stimulated with anti-CD3 antibody; experiment: anti-CD3 induced proliferation of spleen cells from peptide-treated mice; format: cell-based; settings: mice treated i.p. 0.5 or 5 mg/kg for one hour; 0, 12, 24 and 48 hours culture
Method: FIG. 4: A test on representative oligopeptides for their effect on proliferation during rapid growth of murine monocytes induced by CD3 when avid cell division occurs. Mice (n=5) were treated i.p. PBS, Nak4 (LQGV (SEQ ID NO:117)), Nak47 (LAGV (SEQ ID NO:121)), Nak46 (AQGV (SEQ ID NO:120)) provided by Ansynth BV, The Netherlands, or Nak46* (AQGV (SEQ ID NO:120) provided by Diosynth BV, The Netherlands). Mice were treated with 0.5 mg/kg of 5 mg/kg peptide for one hour, after which, spleens were isolated and spleen cell suspensions were made. Spleen cell suspensions were pooled per group and cultured in vitro (in three-fold) in the presence of PBS or of anti-CD3 antibody and proliferation was tested at 0, 12, 24 and 48 hours after culture.
To further study anti-cell-cycle activity of various oligopeptides, an in vitro experiment in […] of mice stimulated with anti-CD3 was performed. The aim was to test representative oligopeptides for their effect on proliferation during rapid growth induced by CD3 when avid cell division occurs. Mice (n=5) were treated i.p. PBS, Nak4 (LQGV (SEO ID NO:117)), Nak47 (LAGV (SEQ ID NO:121)), Nak46 (AQGV (SEQ ID NO:120)) provided by Ansynth BV, The Netherlands, or Nak46* (AQGV (SEQ ID NO:120) provided by Diosynth BV, The Netherlands). Mice were treated with 0.5 mg/kg or 5 mg/kg peptide for one hour after which spleens were isolated and spleen cell suspensions were made. Spleen cell suspensions were pooled per group and cultured in vitro (in three-fold) in the presence of PBS or of anti-CD3 antibody and proliferation was tested at 0, 12, 24 and 48 hours after culture.

[4] = 0 hours, peptide 5 mg/kg 2 hours after LPS
[5] = 0 hours, peptide 5 mg/kg 24 hours after LPS
[6] = 5 mg/kg given both early (2 hours) or late (24 hours)
[7] = 14 hours, peptide 5 mg/kg 2 hours after LPS
[8] = 14 hours, peptide 5 mg/kg 24 hours after LPS
[9] = 24 hours, peptide 5 mg/kg 2 hours after LPS
[10] = 24 hours, peptide 5 mg/kg 24 hours after LPS
[11] = 48 hours, peptide 5 mg/kg 2 hours after LPS
[12] = 48 hours, peptide 5 mg/kg 24 hours after LPS
[13] = 84 hours, peptide 5 mg/kg 2 hours after LPS
[14] = 84 hours, peptide 5 mg/kg 24 hours after LPS

AQGV
% Survival [1, 4]: 100%
% Survival [1, 5]: 100%
clinical signs of shock at 84 hours after LPS-treatment (in words) [1, 6]: no remaining clinical signs of shock
survival at 84 hours after LPS-treatment [1, 6]: 100%
% Survival [1, 7]: 100%
% Survival [1, 8]: 100%
% Survival [1, 9]: 100%
% Survival [1, 10]: 100%
% Survival [1, 11]: 100%
% Survival [1, 12]: 100%
% Survival [1, 13]: 100%
% Survival [1, 14]: 100%
identified as useful peptide for treatment of radiation injury from cell-cycle studies in plants and in vitro proliferation studies [2]: useful
proliferation of anti-CD3 stimulated spleen cells (in words) [3]: reduction of proliferation

LAGV (tetramer peptide)
identified as useful peptide for treatment of radiation injury from cell-cycle studies in plants and in vitro proliferation studies [2]: useful
proliferation of anti-CD3 stimulated spleen cells (in words) [3]: reduction of proliferation

LQG
% Survival [1, 4]: 100%
% Survival [1, 5]: 100%
% Survival [1, 7]: 100%
% Survival [1, 8]: 100%
% Survival [1, 9]: 100%
% Survival [1, 10]: 100%
% Survival [1, 11]: 0%
% Survival [1, 12]: 0%
% Survival [1, 13]: 0%
% Survival [1, 14]: 0%

LQGV
% Survival [1, 4]: 100%
% Survival [1, 5]: 100%
% Survival [1, 7]: 100%
% Survival [1, 8]: 100%
% Survival [1, 9]: 100%
% Survival [1, 10]: 100%
% Survival [1, 11]: 100%
% Survival [1, 12]: 0%
% Survival [1, 13]: 100%
% Survival [1, 14]: 0%
identified as useful peptide for treatment of radiation injury from cell-cycle studies in plants and in vitro proliferation studies [2]: useful
effect on cell-cycle marker (pCDG) and auxin-responsive marker (DR5::GUS) (in words) ([2]; seedlings incubated four and eight hours, 5 mg/ml peptide solution): clear effect on the tested markers
proliferation of anti-CD3 stimulated spleen cells (in words) [3]: reduction of proliferation

MTR
% Survival [1, 4]: 100%
% Survival [1, 5]: 100%
% Survival [1, 7]: 100%
% Survival [1, 8]: 100%
% Survival [1, 9]: 100%
% Survival [1, 10]: 100%
% Survival [1, 11]: 100%
% Survival [1, 12]: 100%
% Survival [1, 13]: 50%
% Survival [1, 14]: 100%

MTRV
% Survival [1, 4]: 100%
% Survival [1, 5]: 100%
% Survival [1, 7]: 100%
% Survival [1, 8]: 100%
% Survival [1, 9]: 100%
% Survival [1, 10]: 100%
% Survival [1, 11]: 50%
% Survival [1, 12]: 100%
% Survival [1, 13]: 30%
% Survival [1, 14]: 100%
identified as useful peptide for treatment of radiation injury from cell-cycle studies in plants and in vitro proliferation studies [2]: useful

VLPALP (hexamer peptide)
% Survival [1, 4]: 100%
% Survival [1, 5]: 100%
% Survival [1, 7]: 100%
% Survival [1, 8]: 100%
% Survival [1, 9]: 100%
% Survival [1, 10]: 100%
% Survival [1, 11]: 100%
% Survival [1, 12]: 0%
% Survival [1, 13]: 100%
% Survival [1, 14]: 0%
identified as useful peptide for treatment of radiation injury from cell-cycle studies in plants and in vitro proliferation studies [2]: useful

VLPALPQ (septamer peptide)
% Survival [1, 4]: 100%
% Survival [1, 5]: 100%
% Survival [1, 7]: 100%
% Survival [1, 8]: 100%
% Survival [1, 9]: 100%
% Survival [1, 10]: 100%
% Survival [1, 11]: 0%
% Survival [1, 12]: 100%
% Survival [1, 13]: 0%
% Survival [1, 14]: 100%
